Measurements from PubChem BioAssay (NCI).
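Dose response: 5 concentrations. Exposure: 48 h. Format: 96-well plates. Endpoint: linear interpolation; highest concentration if not reached. GI50 = concentration required for 50% inhibition of growth. The concentration for full growth arrest is given as TGI.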

Assays:
Experiment in all cases: NCI-60 cell line screen, 48 h
786-0 renal = system: 786-0 renal
EKVX NSCLC = system: EKVX NSCLC
HCT-15 colon = system: HCT-15 colon
MDA-MB-435 = system: MDA-MB-435
OVCAR-4 ovarian = system: OVCAR-4 ovarian
OVCAR-8 ovarian = system: OVCAR-8 ovarian
PC-3 prostate = system: PC-3 prostate
SF-539 CNS = system: SF-539 CNS
SK-MEL-5 melanoma = system: SK-MEL-5 melanoma
SNB-75 CNS = system: SNB-75 CNS

`O=Cc1coc2ccccc2c1=O` gave a TGI (786-0 renal) of 37.9 µM, a TGI (EKVX NSCLC) of 49.9 µM and a TGI (HCT-15 colon) of 37.4 µM. The TGI (MDA-MB-435) was 47.9 µM, the TGI (OVCAR-4 ovarian) was 43.8 µM and the TGI (OVCAR-8 ovarian) was 35.3 µM. The TGI (PC-3 prostate) was 53.7 µM, the TGI (SF-539 CNS) was 31.9 µM and the TGI (SK-MEL-5 melanoma) was 39 µM. It also gave a TGI (SNB-75 CNS) of 0.0768 µM.
With `O=C(NNS(=O)(=O)c1cc(C(F)(F)F)cc(C(F)(F)F)c1)c1cnn(-c2ccc(Cl)cc2)c1C(F)(F)F` the GI50 (786-0 renal) was 18.1 µM, the TGI (786-0 renal) was 42.2 µM and the GI50 (EKVX NSCLC) was 16 µM. It also gave a TGI (EKVX NSCLC) of 43.2 µM, a GI50 (HCT-15 colon) of 16 µM and a TGI (HCT-15 colon) of 37.5 µM. The GI50 (MDA-MB-435) was 17 µM, the TGI (MDA-MB-435) was 33.2 µM and the GI50 (OVCAR-4 ovarian) was 38.3 µM. The TGI (OVCAR-4 ovarian) was over 100 µM, the GI50 (OVCAR-8 ovarian) was 16.1 µM and the TGI (OVCAR-8 ovarian) was 51.7 µM. The GI50 (PC-3 prostate) was 16.4 µM, the TGI (PC-3 prostate) was 32.8 µM and the GI50 (SF-539 CNS) was 18.4 µM. It also gave a TGI (SF-539 CNS) of 33.5 µM, a GI50 (SK-MEL-5 melanoma) of 14.3 µM and a TGI (SK-MEL-5 melanoma) of 29.6 µM. The GI50 (SNB-75 CNS) was 24.4 µM and the TGI (SNB-75 CNS) was 75.3 µM.
Molecule `COc1ccc(/C=C2\COc3ccc(-c4ccccc4)cc3C2=O)cc1O` has a GI50 (786-0 renal) of 5.02 µM, a TGI (786-0 renal) of 15.7 µM and a GI50 (EKVX NSCLC) of 6.71 µM. For the same molecule, the TGI (EKVX NSCLC) was over 100 µM, the GI50 (HCT-15 colon) was 1.69 µM and the TGI (HCT-15 colon) was 4.37 µM. For the same molecule, the GI50 (MDA-MB-435) was 2.03 µM, the TGI (MDA-MB-435) was 15.9 µM and the GI50 (OVCAR-4 ovarian) was 4.18 µM. The TGI (OVCAR-4 ovarian) was 30.8 µM, the GI50 (OVCAR-8 ovarian) was 2.43 µM and the TGI (OVCAR-8 ovarian) was 6.56 µM. It also gave a GI50 (PC-3 prostate) of 3.41 µM, a TGI (PC-3 prostate) of over 100 µM and a GI50 (SF-539 CNS) of 2.45 µM. The TGI (SF-539 CNS) was 6.38 µM, the GI50 (SK-MEL-5 melanoma) was 1.51 µM and the TGI (SK-MEL-5 melanoma) was 3.68 µM. The GI50 (SNB-75 CNS) was 2.71 µM and the TGI (SNB-75 CNS) was 8.77 µM.
Work on `CC1OC(O)C(O)C(O)C1O` (centres undefined) yielded a TGI (786-0 renal) of over 100 µM, a TGI (EKVX NSCLC) of over 100 µM and a TGI (HCT-15 colon) of over 100 µM. It also gave a TGI (MDA-MB-435) of over 100 µM, a TGI (OVCAR-4 ovarian) of over 100 µM and a TGI (OVCAR-8 ovarian) of over 100 µM. For the same molecule, the TGI (PC-3 prostate) was over 100 µM, the TGI (SF-539 CNS) was over 100 µM and the TGI (SK-MEL-5 melanoma) was over 100 µM. The TGI (SNB-75 CNS) was over 100 µM.
Work on `C[Se]C(=O)CC1=C2C=C(F)C=CC2/C(=C\c2ccc(S(C)=O)cc2)C1C` (centres undefined) yielded a GI50 (786-0 renal) of 0.207 µM, a TGI (786-0 renal) of 1.71 µM and a GI50 (EKVX NSCLC) of under 0.0113 µM. It also gave a TGI (EKVX NSCLC) of 0.0967 µM, a GI50 (HCT-15 colon) of 0.0461 µM and a TGI (HCT-15 colon) of 1.21 µM. The GI50 (MDA-MB-435) was under 0.0117 µM, the TGI (MDA-MB-435) was 0.362 µM and the GI50 (OVCAR-4 ovarian) was 0.131 µM. For the same molecule, the TGI (OVCAR-4 ovarian) was 7.05 µM, the GI50 (OVCAR-8 ovarian) was 0.0447 µM and the TGI (OVCAR-8 ovarian) was over 100 µM. For the same molecule, the GI50 (PC-3 prostate) was 0.174 µM, the TGI (PC-3 prostate) was 1.95 µM and the GI50 (SF-539 CNS) was 0.0371 µM. For the same molecule, the TGI (SF-539 CNS) was 0.0923 µM, the GI50 (SK-MEL-5 melanoma) was 0.111 µM and the TGI (SK-MEL-5 melanoma) was 0.266 µM. It also gave a GI50 (SNB-75 CNS) of under 0.01 µM and a TGI (SNB-75 CNS) of under 0.036 µM.
Work on `CC(=O)/C(C)=N/N/C(N)=N\S(=O)(=O)c1cc(C(=O)Nc2ccccc2)c(Cl)cc1SCc1ccccc1` yielded a GI50 (786-0 renal) of 0.766 µM, a TGI (786-0 renal) of over 100 µM and a GI50 (EKVX NSCLC) of 6.62 µM. For the same molecule, the TGI (EKVX NSCLC) was 39.5 µM, the GI50 (HCT-15 colon) was over 100 µM and the TGI (HCT-15 colon) was over 100 µM. The GI50 (MDA-MB-435) was 34.4 µM, the TGI (MDA-MB-435) was over 100 µM and the GI50 (OVCAR-4 ovarian) was 12.3 µM. For the same molecule, the TGI (OVCAR-4 ovarian) was over 100 µM, the GI50 (OVCAR-8 ovarian) was 8.6 µM and the TGI (OVCAR-8 ovarian) was over 100 µM. The GI50 (PC-3 prostate) was over 100 µM, the TGI (PC-3 prostate) was over 100 µM and the GI50 (SF-539 CNS) was 2.79 µM. The TGI (SF-539 CNS) was 8.05 µM, the GI50 (SK-MEL-5 melanoma) was 24 µM and the TGI (SK-MEL-5 melanoma) was over 100 µM. The GI50 (SNB-75 CNS) was over 100 µM and the TGI (SNB-75 CNS) was over 100 µM.
`Cn1c(O)c(C(=O)Nc2ccc([N+](=O)[O-])cc2)c(=O)n(C)c1=S` was tested, and the TGI (786-0 renal) was 8.81 µM, the TGI (EKVX NSCLC) was over 23.2 µM and the TGI (HCT-15 colon) was 7.02 µM. For the same molecule, the TGI (MDA-MB-435) was 4.95 µM, the TGI (OVCAR-4 ovarian) was 13.5 µM and the TGI (OVCAR-8 ovarian) was 14.9 µM. The TGI (PC-3 prostate) was 5.34 µM, the TGI (SF-539 CNS) was 4.2 µM and the TGI (SK-MEL-5 melanoma) was 5.84 µM. The TGI (SNB-75 CNS) was 6.37 µM.
With `COc1ccc(/C=C(\C#N)c2cc3ccccc3n2C)cc1` the GI50 (786-0 renal) was 0.613 µM, the TGI (786-0 renal) was over 100 µM and the GI50 (EKVX NSCLC) was 0.765 µM. It also gave a TGI (EKVX NSCLC) of over 100 µM, a GI50 (HCT-15 colon) of 0.372 µM and a TGI (HCT-15 colon) of over 100 µM. It also gave a GI50 (MDA-MB-435) of 0.153 µM, a TGI (MDA-MB-435) of 0.403 µM and a GI50 (OVCAR-4 ovarian) of 1.09 µM. The TGI (OVCAR-4 ovarian) was over 100 µM, the GI50 (OVCAR-8 ovarian) was 0.56 µM and the TGI (OVCAR-8 ovarian) was over 100 µM. It also gave a GI50 (PC-3 prostate) of 0.448 µM, a TGI (PC-3 prostate) of over 100 µM and a GI50 (SF-539 CNS) of 0.305 µM. For the same molecule, the TGI (SF-539 CNS) was 1.22 µM, the GI50 (SK-MEL-5 melanoma) was 0.504 µM and the TGI (SK-MEL-5 melanoma) was 16.9 µM. For the same molecule, the GI50 (SNB-75 CNS) was 0.198 µM and the TGI (SNB-75 CNS) was 5.5 µM.
In the case of `O=C(/C=C/c1ccco1)Nc1ncc(Cc2ccc(F)cc2)s1`, the GI50 (786-0 renal) is reported as 0.157 µM, the TGI (786-0 renal) is reported as over 100 µM and the GI50 (EKVX NSCLC) is reported as 0.303 µM. For the same molecule, the TGI (EKVX NSCLC) was over 100 µM, the GI50 (HCT-15 colon) was 0.0461 µM and the TGI (HCT-15 colon) was over 100 µM. The GI50 (MDA-MB-435) was 0.0219 µM, the TGI (MDA-MB-435) was 0.0558 µM and the GI50 (OVCAR-4 ovarian) was 1.22 µM. For the same molecule, the TGI (OVCAR-4 ovarian) was over 100 µM, the GI50 (OVCAR-8 ovarian) was 0.152 µM and the TGI (OVCAR-8 ovarian) was over 100 µM. It also gave a GI50 (PC-3 prostate) of 0.0571 µM, a TGI (PC-3 prostate) of over 100 µM and a GI50 (SF-539 CNS) of 0.0686 µM. The TGI (SF-539 CNS) was 0.379 µM, the GI50 (SK-MEL-5 melanoma) was 0.0476 µM and the GI50 (SNB-75 CNS) was 0.0547 µM. For the same molecule, the TGI (SNB-75 CNS) was 0.706 µM.
Molecule `COc1ccc([C@H]2O[C@@H](CO)C[C@]2(O)c2ccc(OC)cc2)cc1` has a GI50 (786-0 renal) of over 100 µM, a TGI (786-0 renal) of over 100 µM and a GI50 (EKVX NSCLC) of over 100 µM. For the same molecule, the TGI (EKVX NSCLC) was over 100 µM, the GI50 (HCT-15 colon) was over 100 µM and the TGI (HCT-15 colon) was over 100 µM. The GI50 (MDA-MB-435) was over 100 µM, the TGI (MDA-MB-435) was over 100 µM and the GI50 (OVCAR-4 ovarian) was over 100 µM. The TGI (OVCAR-4 ovarian) was over 100 µM, the GI50 (OVCAR-8 ovarian) was over 100 µM and the TGI (OVCAR-8 ovarian) was over 100 µM. It also gave a GI50 (PC-3 prostate) of over 100 µM, a TGI (PC-3 prostate) of over 100 µM and a GI50 (SF-539 CNS) of over 100 µM. It also gave a TGI (SF-539 CNS) of over 100 µM, a GI50 (SK-MEL-5 melanoma) of over 100 µM and a TGI (SK-MEL-5 melanoma) of over 100 µM. For the same molecule, the GI50 (SNB-75 CNS) was over 100 µM and the TGI (SNB-75 CNS) was over 100 µM.
In the case of `CC1(C)OCN(c2ccc(Cl)cc2)Cn2c1nc1ccccc12`, the TGI (786-0 renal) is reported as over 100 µM, the TGI (EKVX NSCLC) is reported as over 100 µM and the TGI (HCT-15 colon) is reported as over 100 µM. For the same molecule, the TGI (MDA-MB-435) was over 100 µM, the TGI (OVCAR-4 ovarian) was over 100 µM and the TGI (OVCAR-8 ovarian) was over 100 µM. It also gave a TGI (PC-3 prostate) of over 100 µM, a TGI (SF-539 CNS) of over 100 µM and a TGI (SK-MEL-5 melanoma) of 5.39 µM. For the same molecule, the TGI (SNB-75 CNS) was over 100 µM.
With `CCSC1=CC(=O)c2ccccc2C1=O` the GI50 (786-0 renal) was 9.25 µM, the TGI (786-0 renal) was 22.3 µM and the GI50 (EKVX NSCLC) was 7.82 µM. For the same molecule, the TGI (EKVX NSCLC) was 23.2 µM, the GI50 (HCT-15 colon) was 13.9 µM and the TGI (HCT-15 colon) was 31.4 µM. The GI50 (MDA-MB-435) was 2.69 µM, the TGI (MDA-MB-435) was 7.02 µM and the GI50 (OVCAR-4 ovarian) was 0.959 µM. For the same molecule, the TGI (OVCAR-4 ovarian) was 2.37 µM, the GI50 (OVCAR-8 ovarian) was 1.75 µM and the TGI (OVCAR-8 ovarian) was 3.8 µM. The GI50 (PC-3 prostate) was 5.84 µM, the TGI (PC-3 prostate) was 18.5 µM and the GI50 (SF-539 CNS) was 12.7 µM. It also gave a TGI (SF-539 CNS) of 28.2 µM, a GI50 (SK-MEL-5 melanoma) of 7.11 µM and a TGI (SK-MEL-5 melanoma) of 20.3 µM. It also gave a GI50 (SNB-75 CNS) of 14.8 µM and a TGI (SNB-75 CNS) of 29.7 µM.
